Experimental findings from publication PMC5820181 (Biochemistry, 2018) are described below.

The target in assay [1] is T1, LipDH-mCherry; yeast lipoamide dehydrogenase (Saccharomyces cerevisiae, UniProt P09624).
T1 sequence (P09624 22-499): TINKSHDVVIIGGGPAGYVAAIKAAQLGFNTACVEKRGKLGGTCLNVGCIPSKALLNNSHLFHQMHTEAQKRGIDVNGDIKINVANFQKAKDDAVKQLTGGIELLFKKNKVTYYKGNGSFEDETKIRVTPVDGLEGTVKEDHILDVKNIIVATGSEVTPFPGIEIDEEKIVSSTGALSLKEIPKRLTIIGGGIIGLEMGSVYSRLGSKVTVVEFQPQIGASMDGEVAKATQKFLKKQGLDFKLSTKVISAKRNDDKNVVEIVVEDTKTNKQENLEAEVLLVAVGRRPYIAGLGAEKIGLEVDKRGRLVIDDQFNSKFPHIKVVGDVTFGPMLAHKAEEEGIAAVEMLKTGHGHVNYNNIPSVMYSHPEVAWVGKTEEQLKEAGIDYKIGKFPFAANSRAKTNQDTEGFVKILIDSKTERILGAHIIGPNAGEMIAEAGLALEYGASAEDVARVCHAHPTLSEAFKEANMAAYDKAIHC
As to the kind of experiment: UV-Vis absorbance of purified protein. It counts as binding. As to conditions: 50 mM phosphate pH 7.5, 1 mM EDTA; bound as purified.

For assay [2], the target named is EcTrxR-mCherry (TrxR-mCherry); E. coli thioredoxin reductase (Escherichia coli, UniProt P0A9P4). As to the kind of experiment: UV-Vis absorbance of purified protein. Format: binding. As to conditions: 50 mM phosphate pH 7.5, 1 mM EDTA; bound as purified.
Sequence of EcTrxR-mCherry (TrxR-mCherry); E. coli thioredoxin reductase (P0A9P4 2-321): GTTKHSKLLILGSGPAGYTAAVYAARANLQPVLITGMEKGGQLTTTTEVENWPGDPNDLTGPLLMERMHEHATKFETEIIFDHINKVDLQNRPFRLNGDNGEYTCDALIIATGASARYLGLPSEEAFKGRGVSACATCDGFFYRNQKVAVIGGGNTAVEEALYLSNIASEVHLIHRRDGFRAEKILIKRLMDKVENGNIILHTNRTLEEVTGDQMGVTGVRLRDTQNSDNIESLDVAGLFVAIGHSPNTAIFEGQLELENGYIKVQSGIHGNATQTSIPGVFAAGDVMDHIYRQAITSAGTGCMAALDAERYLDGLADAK
For assay [3], the target named is T1, LipDH-mCherry; yeast lipoamide dehydrogenase. Put plainly: quenching of flavin fluorescence. It counts as biochemical. As to conditions: 1 uM probe, 100 uM NADPH; poor substrate.

For the compound `Cc1cc2nc3c(=O)[nH]c(=O)nc-3n(C[C@H](O)[C@H](O)[C@H](O)COP(=O)(O)OP(=O)(O)OC[C@H]3O[C@@H](n4cnc5c(N)ncnc54)[C@H](O)[C@@H]3O)c2cc1C` [FAD], the “UV-Vis absorbance of purified protein” value in assay [1] was “purified construct contained the expected complement of flavin and mCherry absorbance contributions”; in assay [2], “found to contain the expected complement of flavin and mCherry”. For `NC(=O)C1=CN([C@@H]2O[C@H](COP(=O)(O)OP(=O)(O)OC[C@H]3O[C@@H](n4cnc5c(N)ncnc54)[C@H](OP(=O)(O)O)[C@@H]3O)[C@@H](O)[C@H]2O)C=CC1` [NADPH], in assay [3], the “quenching of flavin fluorescence (456/520 nm) on reduction” value was “the probe responds slowly to this pyridine nucleotide”.
